Measurements as given in ChEMBL document CHEMBL1201861, “Genomics of Drug Sensitity in Cancer screening data, Wellcome Trust Sanger Institute”.

Key:
Experiment in all cases: cells
Conditions in all cases: Homo sapiens
OMC-1 = assay type: functional, cell-based;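 further: growth inhibition of the OMC-1 cell line, measured by a cell viability assay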
Description: SANGER: Inhibition of human OMC-1 cell growth in a cell viability assay.

MKN-1 = assay type: functional, cell-based;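 further: growth inhibition of human MKN1 cells, read out by a cell viability measurement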
Description: SANGER: Inhibition of human MKN1 cell growth in a cell viability assay.

VA-ES-BJ = assay type: functional, cell-based;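 further: growth inhibition of the VA-ES-BJ cell line, read out by a cell viability assay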
Description: SANGER: Inhibition of human VA-ES-BJ cell growth in a cell viability assay.

EW-16 = assay type: functional, cell-based;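 further: growth inhibition of human EW-16 cells, read out as cell viability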
Description: SANGER: Inhibition of human EW-16 cell growth in a cell viability assay.

EW-13 = assay type: functional, cell-based;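 further: growth inhibition of EW-13 cells, read out with a cell viability assay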
Description: SANGER: Inhibition of human EW-13 cell growth in a cell viability assay.

C8166 = assay type: functional, cell-based;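 further: growth inhibition of human C8166 cells measured by a cell viability assay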
Description: SANGER: Inhibition of human C8166 cell growth in a cell viability assay.

C2BBe1 = assay type: functional, cell-based;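 further: growth inhibition of C2BBe1 cells, read out through a viability assay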
Description: SANGER: Inhibition of human C2BBe1 cell growth in a cell viability assay.

OS-RC-2 = assay type: functional, cell-based;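 further: growth inhibition of human OS-RC-2 cells, measured by a cell viability assay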
Description: SANGER: Inhibition of human OS-RC-2 cell growth in a cell viability assay.

LS-123 = assay type: functional, cell-based
Description: SANGER: Inhibition of human LS-123 cell growth in a cell viability assay.

DU-4475 = assay type: functional, cell-based
Description: SANGER: Inhibition of human DU-4475 cell growth in a cell viability assay.

MIA PaCa-2 = assay type: functional, cell-based;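 further: growth inhibition of MIA PaCa-2 cells, read out with a cell viability assay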
Description: SANGER: Inhibition of human MIA-PaCa-2 cell growth in a cell viability assay.

EW-3 = assay type: functional, cell-based;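 further: cell viability assay read-out, IC50 reflects inhibition of growth of the EW-3 cells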
Description: SANGER: Inhibition of human EW-3 cell growth in a cell viability assay.

SNU-5 = assay type: functional, cell-based;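 further: cell viability readout used to measure growth inhibition in human NCI-SNU-5 cells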
Description: SANGER: Inhibition of human NCI-SNU-5 cell growth in a cell viability assay.

ES6 = assay type: functional, cell-based;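 further: growth inhibition of human ES6 cells, read out with a cell viability assay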
Description: SANGER: Inhibition of human ES6 cell growth in a cell viability assay.

ML-2 = assay type: functional, cell-based;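 further: growth inhibition of ML-2 cells, measured with a cell viability readout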
Description: SANGER: Inhibition of human ML-2 cell growth in a cell viability assay.

A498 = assay type: functional, cell-based;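 further: growth inhibition of human A498 cells, read out with a cell viability assay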
Description: SANGER: Inhibition of human A498 cell growth in a cell viability assay.

AGS = assay type: functional, cell-based;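 further: growth inhibition of AGS cells, determined with a cell viability assay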
Description: SANGER: Inhibition of human AGS cell growth in a cell viability assay.

OVCAR-5 = assay type: functional, cell-based;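 further: growth inhibition of human OVCAR-5 cells, read out with a cell viability assay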
Description: SANGER: Inhibition of human OVCAR-5 cell growth in a cell viability assay.

EW-24 = assay type: functional, cell-based;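 further: human EW-24 cancer cell line, growth inhibition read out via a cell viability assay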
Description: SANGER: Inhibition of human EW-24 cell growth in a cell viability assay.

BFTC-909 = assay type: functional, cell-based
Description: SANGER: Inhibition of human BFTC-909 cell growth in a cell viability assay.

HCE-T = assay type: functional, cell-based;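 further: cell viability assay read-out, reporting inhibition of HCE-T cell growth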
Description: SANGER: Inhibition of human HCE-T cell growth in a cell viability assay.

FTC-133 = assay type: functional, cell-based
KE-37 = assay type: functional, cell-based;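 further: growth inhibition of KE-37 cells, read out with a cell viability assay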
Description: SANGER: Inhibition of human KE-37 cell growth in a cell viability assay.

BT-474 = assay type: functional, cell-based
Description: SANGER: Inhibition of human BT-474 cell growth in a cell viability assay.

LNCaP-Clone-FGC = assay type: functional, cell-based
Description: SANGER: Inhibition of human LNCaP-Clone-FGC cell growth in a cell viability assay.

RS4-11 = assay type: functional, cell-based;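 further: growth inhibition of RS4-11 cells, read out by a cell viability assay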
Description: SANGER: Inhibition of human RS4-11 cell growth in a cell viability assay.

OCI-AML2 = assay type: functional, cell-based;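 further: growth inhibition of OCI-AML2 cells, read out with a cell viability assay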
Description: SANGER: Inhibition of human OCI-AML2 cell growth in a cell viability assay.

ES4 = assay type: functional, cell-based;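 further: growth inhibition of human ES4 cells, read out by a cell viability assay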
Description: SANGER: Inhibition of human ES4 cell growth in a cell viability assay.

HT1197 = assay type: functional, cell-based, HT-1197
Description: SANGER: Inhibition of human HT-1197 cell growth in a cell viability assay.

NOMO-1 = assay type: functional, cell-based;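 further: growth inhibition of human NOMO-1 cells measured by a cell viability assay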
Description: SANGER: Inhibition of human NOMO-1 cell growth in a cell viability assay.

TK-10 = assay type: functional, cell-based;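 further: growth inhibition of TK-10 cells, read out in a cell viability assay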
Description: SANGER: Inhibition of human TK10 cell growth in a cell viability assay.

MeWo = assay type: functional, cell-based;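 further: growth inhibition of MeWo cells, determined by a cell viability readout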
Description: SANGER: Inhibition of human Mewo cell growth in a cell viability assay.

CCRF-CEM = assay type: functional, cell-based;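 further: inhibition of CCRF-CEM cell growth, measured by a cell viability assay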
Description: SANGER: Inhibition of human CCRF-CEM cell growth in a cell viability assay.

LU-139 = assay type: functional, cell-based
Description: SANGER: Inhibition of human LU-139 cell growth in a cell viability assay.

NCI-H1304 = assay type: functional, cell-based;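 further: growth inhibition of the cancer cell line, measured in a cell viability assay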
Description: SANGER: Inhibition of human NCI-H1304 cell growth in a cell viability assay.

GI-1 = assay type: functional, cell-based
Description: SANGER: Inhibition of human GI-1 cell growth in a cell viability assay.

LB373-MEL-D = assay type: functional, cell-based;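 further: growth inhibition of the cell line, read out in a cell viability assay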
Description: SANGER: Inhibition of human LB373-MEL-D cell growth in a cell viability assay.

DMS-79 = assay type: functional, cell-based;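 further: growth inhibition measured with a cell viability assay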
Description: SANGER: Inhibition of human DMS-79 cell growth in a cell viability assay.

MPP-89 = assay type: functional, cell-based;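 further: growth inhibition of human MPP-89 cells, read out with a cell viability assay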
Description: SANGER: Inhibition of human MPP-89 cell growth in a cell viability assay.

EW-11 = assay type: functional, cell-based;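 further: growth inhibition of human EW-11 cells, measured with a cell viability assay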
Description: SANGER: Inhibition of human EW-11 cell growth in a cell viability assay.

KURAMOCHI = assay type: functional, cell-based;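 further: growth inhibition of KURAMOCHI cells, read out with a cell viability assay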
Description: SANGER: Inhibition of human KURAMOCHI cell growth in a cell viability assay.

NCI-H1648 = assay type: functional, cell-based;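 further: cell viability assay measuring inhibition of NCI-H1648 cell growth, from the Sanger screening data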
Description: SANGER: Inhibition of human NCI-H1648 cell growth in a cell viability assay.

MZ1-PC = assay type: functional, cell-based;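 further: cell viability assay measuring growth inhibition of human MZ1-PC cells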
Description: SANGER: Inhibition of human MZ1-PC cell growth in a cell viability assay.

ETK-1 = assay type: functional, cell-based;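 further: growth inhibition of human ETK-1 cells, read out with a cell viability assay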
Description: SANGER: Inhibition of human ETK-1 cell growth in a cell viability assay.

LS-513 = assay type: functional, cell-based
Description: SANGER: Inhibition of human LS-513 cell growth in a cell viability assay.

EC-GI-10 = assay type: functional, cell-based
Description: SANGER: Inhibition of human EC-GI-10 cell growth in a cell viability assay.

NCI-H1299 = assay type: functional, cell-based;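 further: growth inhibition of human NCI-H1299 cells, read out by a cell viability assay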
Description: SANGER: Inhibition of human NCI-H1299 cell growth in a cell viability assay.

SK-OV-3 = assay type: functional, cell-based;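 further: growth inhibition of SK-OV-3 human cells, read out with a cell viability assay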
Description: SANGER: Inhibition of human SK-OV-3 cell growth in a cell viability assay.

NCI-H446 = assay type: functional, cell-based;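 further: growth inhibition of NCI-H446 cells determined by a cell viability assay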
Description: SANGER: Inhibition of human NCI-H446 cell growth in a cell viability assay.

MN-60 = assay type: functional, cell-based;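 further: growth inhibition of the MN-60 cell line, determined with a cell viability assay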
Description: SANGER: Inhibition of human MN-60 cell growth in a cell viability assay.

ATN-1 = assay type: functional, cell-based;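 further: growth inhibition of human ATN-1 cells, read out with a cell viability assay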
Description: SANGER: Inhibition of human ATN-1 cell growth in a cell viability assay.

SK-MEL-1 = assay type: functional, cell-based;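 further: growth inhibition of human SK-MEL-1 cells, read out by a cell viability assay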
Description: SANGER: Inhibition of human SK-MEL-1 cell growth in a cell viability assay.

SW 954 = assay type: functional, cell-based;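 further: growth inhibition of SW954 human cancer cells, read out as cell viability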
Description: SANGER: Inhibition of human SW954 cell growth in a cell viability assay.

HEL = assay type: functional, cell-based;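 further: growth inhibition of HEL cells, read out with a cell viability assay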
Description: SANGER: Inhibition of human HEL cell growth in a cell viability assay.

SF-268 = assay type: functional, cell-based;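 further: growth inhibition of SF-268 cells determined with a cell viability assay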
Description: SANGER: Inhibition of human SF268 cell growth in a cell viability assay.

SK-UT-1 = assay type: functional, cell-based;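 further: growth inhibition of SK-UT-1 cells, measured by a cell viability assay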
Description: SANGER: Inhibition of human SK-UT-1 cell growth in a cell viability assay.

MFH-ino = assay type: functional, cell-based;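 further: growth inhibition of human MFH-ino cells, read out by a cell viability assay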
Description: SANGER: Inhibition of human MFH-ino cell growth in a cell viability assay.

NB5 = assay type: functional, cell-based;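 further: growth inhibition of NB5 cells, read out as cell viability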
Description: SANGER: Inhibition of human NB5 cell growth in a cell viability assay.

KYSE-150 cell line = assay type: functional, cell-based;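 further: growth inhibition of human KYSE-150 cells, read out with a cell viability assay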
Description: SANGER: Inhibition of human KYSE-150 cell growth in a cell viability assay.

COLO-824 = assay type: functional, cell-based
Description: SANGER: Inhibition of human COLO-824 cell growth in a cell viability assay.

TE-6 = assay type: functional, cell-based
Description: SANGER: Inhibition of human TE-6 cell growth in a cell viability assay.

no-11 = assay type: functional, cell-based
Description: SANGER: Inhibition of human no-11 cell growth in a cell viability assay.

BB49-HNC = assay type: functional, cell-based
Description: SANGER: Inhibition of human BB49-HNC cell growth in a cell viability assay.

COLO-741 = assay type: functional, cell-based
Description: SANGER: Inhibition of human COLO-741 cell growth in a cell viability assay.

no-10 = assay type: functional, cell-based
Description: SANGER: Inhibition of human no-10 cell growth in a cell viability assay.

Structure (SMILES): CC[C@@]1(O)C(=O)OCc2c1cc1n(c2=O)Cc2cc3ccccc3nc2-1 [CAMPTOTHECIN]
- IC50 (OMC-1): 78.2 nM
- IC50 (MKN-1): 37.9 nM
- IC50 (VA-ES-BJ): 3.47 nM
- IC50 (EW-16): 0.121 nM
- IC50 (EW-13): 3.27 nM
- IC50 (C8166): 41.5 nM
- IC50 (C2BBe1): 2.44 nM
- IC50 (OS-RC-2): 9.97 nM
- IC50 (LS-123): > 100 nM
- IC50 (DU-4475): 3.07 nM
- IC50 (MIA PaCa-2): 2.76 nM
- IC50 (EW-3): 0.319 nM
- IC50 (SNU-5): 42.7 nM
- IC50 (ES6): 88 nM
- IC50 (ML-2): 2.16 nM
- IC50 (A498): 7.08 nM
- IC50 (AGS): 16.1 nM
- IC50 (OVCAR-5): 43.3 nM
- IC50 (EW-24): 4.03 nM
- IC50 (BFTC-909): 6.92 nM
- IC50 (HCE-T): 5.47 nM
- IC50 (FTC-133): 4.57 nM
- IC50 (KE-37): 1.54 nM
- IC50 (BT-474): > 100 nM
- IC50 (LNCaP-Clone-FGC): 31 nM
- IC50 (RS4-11): 0.902 nM
- IC50 (OCI-AML2): 0.887 nM
- IC50 (ES4): 1.47 nM
- IC50 (HT1197): > 100 nM
- IC50 (NOMO-1): 1.56 nM
- IC50 (TK-10): 55.8 nM
- IC50 (MeWo): 47 nM
- IC50 (CCRF-CEM): 5.55 nM
- IC50 (LU-139): 16.4 nM
- IC50 (NCI-H1304): 59.3 nM
- IC50 (GI-1): 3.37 nM
- IC50 (LB373-MEL-D): 91.2 nM
- IC50 (DMS-79): 31.8 nM
- IC50 (MPP-89): 27.2 nM
- IC50 (EW-11): 2.66 nM
- IC50 (KURAMOCHI): > 100 nM
- IC50 (NCI-H1648): 38.1 nM
- IC50 (MZ1-PC): 20.3 nM
- IC50 (ETK-1): 34.9 nM
- IC50 (LS-513): 19.4 nM
- IC50 (EC-GI-10): 7.9 nM
- IC50 (NCI-H1299): 9.43 nM
- IC50 (SK-OV-3): > 100 nM
- IC50 (NCI-H446): 56.6 nM
- IC50 (MN-60): 5.08 nM
- IC50 (ATN-1): 2.04 nM
- IC50 (SK-MEL-1): 51.3 nM
- IC50 (SW 954): 20.3 nM
- IC50 (HEL): 6.31 nM
- IC50 (SF-268): 3.38 nM
- IC50 (SK-UT-1): 3.07 nM
- IC50 (MFH-ino): 27.1 nM
- IC50 (NB5): 1.92 nM

Structure (SMILES): Cn1c(=O)n(-c2ccc(C(C)(C)C#N)cc2)c2c3cc(-c4cnc5ccccc5c4)ccc3ncc21 [DACTOLISIB]
- IC50 (OMC-1): 100 nM
- IC50 (MKN-1): 2.8 nM
- IC50 (VA-ES-BJ): 17.8 nM
- IC50 (EW-16): 18 nM
- IC50 (EW-13): 95.8 nM
- IC50 (KYSE-150 cell line): 25.9 nM
- IC50 (C8166): > 2000 nM
- IC50 (C2BBe1): 75 nM
- IC50 (COLO-824): 689 nM
- IC50 (OS-RC-2): 16.5 nM
- IC50 (LS-123): 92.2 nM
- IC50 (DU-4475): 9.44 nM
- IC50 (TE-6): 220 nM
- IC50 (no-11): 113 nM
- IC50 (MIA PaCa-2): 84.5 nM
- IC50 (SNU-5): 337 nM
- IC50 (ES6): 92.8 nM
- IC50 (BB49-HNC): 174 nM
- IC50 (ML-2): 60.6 nM
- IC50 (A498): 75.2 nM
- IC50 (AGS): 48.8 nM
- IC50 (OVCAR-5): 35.5 nM
- IC50 (BFTC-909): 3.71 nM
- IC50 (HCE-T): 83.7 nM
- IC50 (FTC-133): 25.1 nM
- IC50 (KE-37): 58.8 nM
- IC50 (BT-474): 236 nM
- IC50 (LNCaP-Clone-FGC): 37.6 nM
- IC50 (COLO-741): 1500 nM
- IC50 (RS4-11): 26.9 nM
- IC50 (OCI-AML2): 82.6 nM
- IC50 (ES4): 21.1 nM
- IC50 (HT1197): 238 nM
- IC50 (NOMO-1): 45.9 nM
- IC50 (TK-10): 100 nM
- IC50 (MeWo): 12 nM
- IC50 (CCRF-CEM): > 2000 nM
- IC50 (LU-139): 7.77 nM
- IC50 (NCI-H1304): 1650 nM
- IC50 (no-10): 201 nM
- IC50 (GI-1): 60.3 nM
- IC50 (MPP-89): 25.3 nM
- IC50 (EW-11): 96.9 nM
- IC50 (KURAMOCHI): 266 nM
- IC50 (NCI-H1648): 113 nM
- IC50 (MZ1-PC): 206 nM
- IC50 (ETK-1): 7.88 nM
- IC50 (LS-513): 141 nM
- IC50 (NCI-H1299): 150 nM
- IC50 (SK-OV-3): 100 nM
- IC50 (NCI-H446): 95.1 nM
- IC50 (MN-60): 38 nM
- IC50 (ATN-1): 73.9 nM
- IC50 (SK-MEL-1): > 2000 nM
- IC50 (SW 954): 234 nM
- IC50 (HEL): 109 nM
- IC50 (SF-268): 102 nM
- IC50 (NB5): 40.6 nM

Structure (SMILES): CC(=O)c1c(C)c2cnc(Nc3ccc(N4CCNCC4)cn3)nc2n(C2CCCC2)c1=O [PALBOCICLIB]
- IC50 (OMC-1): > 4000 nM
- IC50 (VA-ES-BJ): 732 nM
- IC50 (EW-16): 604 nM
- IC50 (EW-13): > 4000 nM
- IC50 (KYSE-150 cell line): 1000 nM
- IC50 (C8166): > 4000 nM
- IC50 (C2BBe1): > 4000 nM
- IC50 (COLO-824): > 4000 nM
- IC50 (OS-RC-2): 522 nM
- IC50 (LS-123): > 4000 nM
- IC50 (DU-4475): > 4000 nM
- IC50 (TE-6): > 4000 nM
- IC50 (no-11): > 4000 nM
- IC50 (MIA PaCa-2): 2360 nM
- IC50 (EW-3): 809 nM
- IC50 (SNU-5): > 4000 nM
- IC50 (ES6): > 4000 nM
- IC50 (BB49-HNC): > 4000 nM
- IC50 (ML-2): 1210 nM
- IC50 (A498): > 4000 nM
- IC50 (AGS): > 4000 nM
- IC50 (OVCAR-5): 900 nM
- IC50 (BFTC-909): > 4000 nM
- IC50 (HCE-T): > 4000 nM
- IC50 (FTC-133): > 4000 nM
- IC50 (KE-37): 2090 nM
- IC50 (BT-474): > 4000 nM
- IC50 (LNCaP-Clone-FGC): > 4000 nM
- IC50 (COLO-741): 1320 nM
- IC50 (RS4-11): 505 nM
- IC50 (OCI-AML2): > 4000 nM
- IC50 (ES4): 2450 nM
- IC50 (HT1197): > 4000 nM
- IC50 (NOMO-1): > 4000 nM
- IC50 (TK-10): 3200 nM
- IC50 (MeWo): 937 nM
- IC50 (CCRF-CEM): > 4000 nM
- IC50 (LU-139): > 4000 nM
- IC50 (NCI-H1304): > 4000 nM
- IC50 (no-10): > 4000 nM
- IC50 (GI-1): > 4000 nM
- IC50 (MPP-89): > 4000 nM
- IC50 (EW-11): > 4000 nM
- IC50 (KURAMOCHI): > 4000 nM
- IC50 (MZ1-PC): > 4000 nM
- IC50 (ETK-1): 3050 nM
- IC50 (LS-513): > 4000 nM
- IC50 (NCI-H1299): 3050 nM
- IC50 (SK-OV-3): > 4000 nM
- IC50 (NCI-H446): > 4000 nM
- IC50 (MN-60): 2310 nM
- IC50 (ATN-1): > 4000 nM
- IC50 (SK-MEL-1): > 4000 nM
- IC50 (SW 954): 929 nM
- IC50 (HEL): 1290 nM
- IC50 (SF-268): 2230 nM
- IC50 (NB5): > 4000 nM
